Test results: EP4722207A1, “OXOISOINDOLINYL-SUBSTITUTED TETRAHYDROPYRIMIDINEDIONE DERIVATIVE AND USE THEREOF” (Gluetacs Therapeutics (Shanghai) Co., Ltd., priority 2023, dated 2024)

How the values were obtained:
WEE1 = target: T1, WEE1 (Homo sapiens, UniProt P30291+Q96SW2); experiment: Western-blot assay, substrate protein degradation in hPBMCs: WEE1; format: cell-based; conditions: for WEE1 substrate protein remaining %: compounds at 50 nM and 500 nM, 24 hours; for substrate protein remaining % WEE1: 24 hours of compound treatment, 50 nM and 500 nM
T1 construct: effects of the compounds of the present disclosure on the expression of target proteins in cells; endogenous in cells; host or cells: human PBMCs (hPBMCs)
T1 sequence (P30291 whole entry): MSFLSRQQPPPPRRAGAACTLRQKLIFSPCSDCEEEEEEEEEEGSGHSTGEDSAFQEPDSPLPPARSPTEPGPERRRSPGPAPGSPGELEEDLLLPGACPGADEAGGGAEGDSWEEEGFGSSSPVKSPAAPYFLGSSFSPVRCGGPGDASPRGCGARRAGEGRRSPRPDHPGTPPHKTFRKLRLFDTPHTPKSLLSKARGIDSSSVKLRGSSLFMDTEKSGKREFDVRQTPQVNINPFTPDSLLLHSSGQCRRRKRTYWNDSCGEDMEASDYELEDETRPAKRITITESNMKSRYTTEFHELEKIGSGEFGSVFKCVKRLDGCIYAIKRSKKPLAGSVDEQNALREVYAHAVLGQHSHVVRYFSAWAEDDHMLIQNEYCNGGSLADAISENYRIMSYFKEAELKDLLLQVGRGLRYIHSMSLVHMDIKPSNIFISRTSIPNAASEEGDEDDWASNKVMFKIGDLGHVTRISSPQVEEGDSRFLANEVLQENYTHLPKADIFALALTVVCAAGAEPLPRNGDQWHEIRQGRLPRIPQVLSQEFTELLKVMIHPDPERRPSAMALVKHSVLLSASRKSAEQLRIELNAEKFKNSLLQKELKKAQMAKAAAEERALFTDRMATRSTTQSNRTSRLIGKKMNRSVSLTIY
T1 sequence (Q96SW2 whole entry): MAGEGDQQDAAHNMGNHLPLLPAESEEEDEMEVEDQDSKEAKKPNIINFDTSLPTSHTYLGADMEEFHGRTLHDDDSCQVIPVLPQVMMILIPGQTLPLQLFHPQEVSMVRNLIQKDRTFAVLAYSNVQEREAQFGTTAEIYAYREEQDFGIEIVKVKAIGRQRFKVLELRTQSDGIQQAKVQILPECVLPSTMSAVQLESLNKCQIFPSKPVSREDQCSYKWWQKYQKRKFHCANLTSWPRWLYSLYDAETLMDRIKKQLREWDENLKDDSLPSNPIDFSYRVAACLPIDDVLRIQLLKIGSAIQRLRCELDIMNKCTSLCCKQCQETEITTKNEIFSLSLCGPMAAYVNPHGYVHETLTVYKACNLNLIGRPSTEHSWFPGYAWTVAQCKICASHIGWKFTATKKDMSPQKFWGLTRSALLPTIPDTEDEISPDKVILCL
T1 sequence (Q16531 whole entry partner): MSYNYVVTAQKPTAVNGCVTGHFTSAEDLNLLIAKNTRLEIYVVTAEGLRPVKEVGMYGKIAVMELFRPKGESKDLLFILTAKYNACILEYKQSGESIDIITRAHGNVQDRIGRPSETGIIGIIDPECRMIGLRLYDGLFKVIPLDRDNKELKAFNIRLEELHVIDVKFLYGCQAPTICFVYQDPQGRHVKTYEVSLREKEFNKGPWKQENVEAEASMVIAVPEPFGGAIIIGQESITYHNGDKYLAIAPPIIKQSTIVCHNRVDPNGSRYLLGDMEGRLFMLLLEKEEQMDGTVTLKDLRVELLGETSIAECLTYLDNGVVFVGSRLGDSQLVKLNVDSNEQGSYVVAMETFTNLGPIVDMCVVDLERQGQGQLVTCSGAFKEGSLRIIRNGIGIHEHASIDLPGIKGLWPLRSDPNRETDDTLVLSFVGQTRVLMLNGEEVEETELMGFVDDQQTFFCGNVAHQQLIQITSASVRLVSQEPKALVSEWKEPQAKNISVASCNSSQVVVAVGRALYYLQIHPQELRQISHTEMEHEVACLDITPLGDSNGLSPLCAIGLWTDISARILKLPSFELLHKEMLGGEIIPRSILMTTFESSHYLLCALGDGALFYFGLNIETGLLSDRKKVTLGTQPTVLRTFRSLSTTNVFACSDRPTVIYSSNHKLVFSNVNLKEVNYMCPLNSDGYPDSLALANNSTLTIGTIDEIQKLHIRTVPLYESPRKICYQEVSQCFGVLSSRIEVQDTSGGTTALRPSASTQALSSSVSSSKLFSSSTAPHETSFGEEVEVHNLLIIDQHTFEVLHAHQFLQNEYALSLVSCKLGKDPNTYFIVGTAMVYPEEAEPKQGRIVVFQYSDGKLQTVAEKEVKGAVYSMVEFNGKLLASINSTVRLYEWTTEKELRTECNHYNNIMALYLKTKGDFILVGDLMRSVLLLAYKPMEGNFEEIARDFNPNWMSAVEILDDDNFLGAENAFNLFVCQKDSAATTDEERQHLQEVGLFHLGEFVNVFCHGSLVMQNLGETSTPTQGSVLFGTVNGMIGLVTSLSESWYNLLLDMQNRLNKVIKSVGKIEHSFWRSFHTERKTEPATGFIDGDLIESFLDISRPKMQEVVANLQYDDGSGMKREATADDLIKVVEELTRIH

[1] = target: T2, human Cereblon WT GST-tagged protein (Homo sapiens, UniProt Q96SW2); experiment: CRBN-binding affinity, CEREBLON BINDING kit (HTRF); conditions: for IC50: 3 hours at room temperature
T2 construct: purchased CISBIO 64BDCRBNPEH
T2 sequence (Q96SW2 whole entry): as the sequence (Q96SW2 whole entry) above
Excerpt: The CEREBLON BINDING kits (specification: 10,000 tests; product number: Catalog # 64BDCRBNPEH; CISBIO company) was used to determine the CRBN binding ability of the compounds to be tested through a HTRF method (homogeneous time-resolved fluorescence). The specific methods are as follows: • 1. […] Specifically, diluent #9 (1X) solution was used as the diluent, and multiple concentration gradients were set. […] Into the 96-well plate, the diluted test compounds and corresponding detection reagents were added, resulting in final test compound concentrations of 2 µM and 0.5 µM, respectively. […] Then, 2.5 µL of human Cereblon WT GST-tagged protein solution was added to each well. Finally, 5 µL of the thoroughly mixed Thalidomide-Re reagent and GST Eu antibody working solution were added to each of the aforementioned wells. […] The blank control wells were sequentially added with 2.5 µL of diluent #9 (1X) solution, 2.5 µL of binding buffer, and 5 µL of thoroughly mixed Thalidomide-Re reagent and GST Eu antibody working solution. • 4. […] OD 620 nm control is the absorbance value of the blank control well at an emission wavelength of 620 nm. […] OD 620 nm Std0 is the absorbance value of the solvent control well at an emission wavelength of 620 nm.

CK1α = target: T3, CK1α (Homo sapiens, UniProt P48729+Q96SW2); experiment: Western-blot assay, substrate protein degradation in hPBMCs: CK1α; format: cell-based; conditions: for CK1α substrate protein remaining %: compounds at 50 nM and 500 nM, 24 hours; for substrate protein remaining % CK1α: 24 hours of compound treatment, 50 nM and 500 nM
T3 construct: effects of the compounds of the present disclosure on the expression of target proteins in cells; endogenous in cells; host or cells: human PBMCs (hPBMCs)
T3 sequence (P48729 whole entry): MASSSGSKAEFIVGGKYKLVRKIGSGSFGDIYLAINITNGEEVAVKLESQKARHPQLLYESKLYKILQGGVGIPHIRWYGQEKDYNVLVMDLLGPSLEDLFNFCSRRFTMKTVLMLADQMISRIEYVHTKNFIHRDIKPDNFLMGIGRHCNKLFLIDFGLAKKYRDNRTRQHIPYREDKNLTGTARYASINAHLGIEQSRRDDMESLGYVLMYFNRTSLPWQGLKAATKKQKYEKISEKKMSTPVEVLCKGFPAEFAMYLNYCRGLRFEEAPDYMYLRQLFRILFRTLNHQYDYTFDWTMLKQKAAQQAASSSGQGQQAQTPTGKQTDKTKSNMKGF
T3 sequence (Q96SW2 whole entry): as the sequence (Q96SW2 whole entry) above
T3 sequence (Q16531 whole entry partner): as the sequence (Q16531 whole entry partner) above

IKZF3 = target: T4, IKZF3 (Homo sapiens, UniProt Q96SW2+Q9UKT9); experiment: Western-blot assay, substrate protein degradation in hPBMCs: IKZF3; format: cell-based; conditions: for IKZF3 substrate protein remaining %: compounds at 50 nM and 500 nM, 24 hours; for substrate protein remaining % IKZF3: 24 hours of compound treatment, 50 nM and 500 nM
T4 construct: effects of the compounds of the present disclosure on the expression of target proteins in cells; endogenous in cells; host or cells: human PBMCs (hPBMCs)

GSPT1 = target: T5, GSPT1 (Homo sapiens, UniProt P15170+Q96SW2); experiment: Western-blot assay, substrate protein degradation in hPBMCs: GSPT1; format: cell-based; conditions: for GSPT1 substrate protein remaining %: compounds at 50 nM and 500 nM, 24 hours; for substrate protein remaining % GSPT1: 24 hours of compound treatment, 50 nM and 500 nM
T5 construct: effects of the compounds of the present disclosure on the expression of target proteins in cells; endogenous in cells; host or cells: human PBMCs (hPBMCs)
T5 sequence (P15170 whole entry): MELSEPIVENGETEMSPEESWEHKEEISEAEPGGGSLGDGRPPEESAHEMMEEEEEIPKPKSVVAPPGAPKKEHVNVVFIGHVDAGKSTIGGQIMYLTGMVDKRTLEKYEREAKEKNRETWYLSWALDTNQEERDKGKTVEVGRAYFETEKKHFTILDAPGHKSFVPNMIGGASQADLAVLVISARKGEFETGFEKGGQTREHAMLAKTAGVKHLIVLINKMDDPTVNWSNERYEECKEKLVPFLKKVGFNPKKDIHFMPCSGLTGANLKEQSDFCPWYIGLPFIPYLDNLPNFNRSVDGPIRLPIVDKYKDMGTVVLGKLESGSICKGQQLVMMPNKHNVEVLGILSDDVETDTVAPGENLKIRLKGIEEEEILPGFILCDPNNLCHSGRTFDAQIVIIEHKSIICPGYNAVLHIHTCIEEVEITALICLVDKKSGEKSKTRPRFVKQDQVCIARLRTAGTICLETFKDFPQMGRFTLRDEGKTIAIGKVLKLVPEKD
T5 sequence (Q96SW2 whole entry): as the sequence (Q96SW2 whole entry) above
T5 sequence (Q16531 whole entry partner): as the sequence (Q16531 whole entry partner) above

IKZF2 = target: T6, IKZF2 (Homo sapiens, UniProt Q96SW2+Q9UKS7); experiment: Western-blot assay, substrate protein degradation in hPBMCs: IKZF2; format: cell-based; conditions: for IKZF2 substrate protein remaining %: compounds at 50 nM and 500 nM, 24 hours; for substrate protein remaining % IKZF2: 24 hours of compound treatment, 50 nM and 500 nM
T6 construct: effects of the compounds of the present disclosure on the expression of target proteins in cells; endogenous in cells; host or cells: human PBMCs (hPBMCs)
T6 sequence (Q9UKS7 whole entry): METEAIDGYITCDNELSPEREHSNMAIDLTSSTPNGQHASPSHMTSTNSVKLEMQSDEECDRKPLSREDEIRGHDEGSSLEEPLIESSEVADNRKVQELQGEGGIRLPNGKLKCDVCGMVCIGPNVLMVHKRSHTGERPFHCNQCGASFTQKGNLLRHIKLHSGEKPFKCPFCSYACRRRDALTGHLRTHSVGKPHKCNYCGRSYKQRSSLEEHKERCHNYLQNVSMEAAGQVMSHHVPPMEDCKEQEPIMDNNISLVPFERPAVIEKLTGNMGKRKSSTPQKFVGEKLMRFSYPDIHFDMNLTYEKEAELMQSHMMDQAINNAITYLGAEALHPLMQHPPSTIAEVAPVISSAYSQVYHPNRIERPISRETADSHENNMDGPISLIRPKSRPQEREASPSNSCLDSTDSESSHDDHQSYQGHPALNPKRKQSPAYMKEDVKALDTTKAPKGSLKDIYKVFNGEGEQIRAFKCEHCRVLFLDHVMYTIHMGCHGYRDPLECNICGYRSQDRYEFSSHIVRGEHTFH
T6 sequence (Q96SW2 whole entry): as the sequence (Q96SW2 whole entry) above
T6 sequence (Q16531 whole entry partner): as the sequence (Q16531 whole entry partner) above

IKZF1 = target: T7, IKZF1 (Homo sapiens, UniProt Q13422+Q96SW2); experiment: Western-blot assay, substrate protein degradation in hPBMCs: IKZF1; format: cell-based; conditions: for IKZF1 substrate protein remaining %: compounds at 50 nM and 500 nM, 24 hours; for substrate protein remaining % IKZF1: 24 hours of compound treatment, 50 nM and 500 nM
T7 construct: effects of the compounds of the present disclosure on the expression of target proteins in cells; endogenous in cells; host or cells: human PBMCs (hPBMCs)
T7 sequence (Q13422 whole entry): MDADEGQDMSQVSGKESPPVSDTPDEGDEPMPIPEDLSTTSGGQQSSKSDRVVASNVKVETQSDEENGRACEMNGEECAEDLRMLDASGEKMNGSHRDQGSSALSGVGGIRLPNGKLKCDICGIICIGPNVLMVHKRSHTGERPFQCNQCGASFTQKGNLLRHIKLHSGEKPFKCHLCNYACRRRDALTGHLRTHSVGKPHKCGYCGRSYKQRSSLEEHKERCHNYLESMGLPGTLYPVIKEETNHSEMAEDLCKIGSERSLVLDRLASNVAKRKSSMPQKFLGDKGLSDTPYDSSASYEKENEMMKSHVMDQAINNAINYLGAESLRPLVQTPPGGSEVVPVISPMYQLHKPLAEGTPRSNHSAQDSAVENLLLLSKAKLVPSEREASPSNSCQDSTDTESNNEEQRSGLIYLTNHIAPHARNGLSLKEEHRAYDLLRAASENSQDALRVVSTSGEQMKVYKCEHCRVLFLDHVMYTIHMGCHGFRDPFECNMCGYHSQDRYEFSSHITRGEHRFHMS
T7 sequence (Q96SW2 whole entry): as the sequence (Q96SW2 whole entry) above
T7 sequence (Q16531 whole entry partner): as the sequence (Q16531 whole entry partner) above

Jurkat = experiment: Cell viability assay (CellTiter-Meiluncell Luminescent), tumor cell proliferation, Jurkat; conditions: Homo sapiens, 96 h, read-out: inhibitory activity (IC50, nM) against tumor cells proliferation, Jurkat
Description: On the following day, the test compounds of the present disclosure were subjected to serial dilution. […] Subsequently, 0.5 µL of the test compound dilution was transferred into the 96-well plate containing the cells, with each well containing 100 µL of cell culture medium. […] Into the 96-well plate, the diluted test compounds and corresponding detection reagents were added, resulting in final test compound concentrations of 500 nM and 10 nM, respectively.
(§1) After the cells were treated with the compounds of the present disclosure for a specified period, the cell viability assay reagent was added to the culture medium according to the kit's instructions to determine cell viability. […] All controls were treated using the same procedure as the compounds of the present disclosure. The growth inhibition curves for the compounds of the present disclosure were plotted using Prism GraphPad software, and the IC50 values were calculated therefrom.

MM.1S = experiment: Cell viability assay (CellTiter-Meiluncell Luminescent), tumor cell proliferation, MM.1S; conditions: Homo sapiens, MM1.S, 96 h, read-out: inhibitory activity (IC50, nM) against tumor cells proliferation, MM.1S
Description: The tumor cells used herein were cultured in a cell culture medium listed in table 2 at 37°C in an incubator with 5% CO2. Prior to experimentation, all cell lines used were correctly identified by STR profiling, and tested negative for mycoplasma contamination using a mycoplasma detection kit through routine screenings.
On the following day, the test compounds of the present disclosure were subjected to serial dilution. […] Subsequently, 0.5 µL of the test compound dilution was transferred into the 96-well plate containing the cells, with each well containing 100 µL of cell culture medium. […] Into the 96-well plate, the diluted test compounds and corresponding detection reagents were added, resulting in final test compound concentrations of 500 nM and 10 nM, respectively. The experimental procedure is described below using the diluted 2 µM test compound as an example.
as §1

MV-4-11 = experiment: Cell viability assay (CellTiter-Meiluncell Luminescent), tumor cell proliferation, MV-4-11; conditions: Homo sapiens, MV4-11, 96 h

Row | Compound | WEE1 substrate protein remaining % (WEE1) | IC50 [1] [µM] | CK1α substrate protein remaining % (CK1α) | IKZF3 substrate protein remaining % (IKZF3) | GSPT1 substrate protein remaining % (GSPT1) | IKZF2 substrate protein remaining % (IKZF2) | IKZF1 substrate protein remaining % (IKZF1) | substrate protein remaining % WEE1 (WEE1) | substrate protein remaining % CK1α (CK1α) | substrate protein remaining % IKZF3 (IKZF3) | IC50 (Jurkat) [nM] | IC50 (MM.1S) [nM] | substrate protein remaining % GSPT1 (GSPT1) | substrate protein remaining % IKZF2 (IKZF2) | substrate protein remaining % IKZF1 (IKZF1) | inhibition at 0.5 µM ([1]; 0.5 µM, read-out: Inhibition Rate at 0.5 µM (%)) [%] | inhibition at 2 µM ([1]; 2 µM, read-out: Inhibition Rate at 2 µM (%)) [%] | inhibition at 0.01 µM (MV-4-11; read-out: Inhibition Rate at 10 nM (%)) [%] | inhibition at 0.5 µM (MV-4-11; read-out: Inhibition Rate at 500 nM (%)) [%]
1 | O=C1CCN(N2Cc3cc(CN4CCN(c5cccs5)CC4)ccc3C2=O)C(=O)N1 [GT-05073, 1-(1-oxo-5-((4-(thiophen-2-yl)piperazin-1-yl)methyl)isoindolin-2-yl)dihydropyrimidine-2,4(1H,3H)-dione] | B ("B" is defined as 80%< substrate protein remaining %≤ 100%) | 1 to 1.5 | B ("B" is defined as 80%< substrate protein remaining %≤ 100%) | A ("A" is defined as 0% ≤ substrate protein remaining % ≤ 80%) | B ("B" is defined as 80%< substrate protein remaining %≤ 100%) | B ("B" is defined as 80%< substrate protein remaining %≤ 100%) | B ("B" is defined as 80%< substrate protein remaining %≤ 100%) |  |  |  |  |  |  |  |  |  |  |  | 
2 | O=C1CCN(N2Cc3cc(CN4CC5CCC4CN5C(c4ccccc4)c4ccccc4)ccc3C2=O)C(=O)N1 (stereo not shown) [GT-06450, 1-(5-((5-benzhydryl-2,5-diazabicyclo[2.2.2]octan-2-yl)methyl)-1-oxoisoindolin-2-yl)dihydropyrimidine-2,4(1H,3H)-dione] | A ("A" is defined as 0% ≤ substrate protein remaining % ≤ 80%) | 1.5 to 1.9 | B ("B" is defined as 80%< substrate protein remaining %≤ 100%) | A ("A" is defined as 0% ≤ substrate protein remaining % ≤ 80%) | A ("A" is defined as 0% ≤ substrate protein remaining % ≤ 80%) | A ("A" is defined as 0% ≤ substrate protein remaining % ≤ 80%) | B ("B" is defined as 80%< substrate protein remaining %≤ 100%) |  |  |  |  |  |  |  |  |  |  |  | 
3 | O=C1CCN(N2Cc3cc(CN4CC=C(c5ccnc(Cl)c5Cl)CC4)ccc3C2=O)C(=O)N1 [GT-07432, 1-(5-((2',3'-dichloro-3,6-dihydro-[4,4'-bipyridin]-1(2H)-yl)methyl)-1-oxoisoindolin-2-yl)dihydropyrimidine-2,4(1H,3H)-dione] |  |  |  |  |  |  |  | A (0% ≤ substrate protein remaining % ≤ 80%) | A (0% ≤ substrate protein remaining % ≤ 80%) | A (0% ≤ substrate protein remaining % ≤ 80%) | 500 to 1000 | 300 to 500 | A (0% ≤ substrate protein remaining % ≤ 80%) | A (0% ≤ substrate protein remaining % ≤ 80%) | A (0% ≤ substrate protein remaining % ≤ 80%) |  |  |  | 
4 | O=C1CCN(N2Cc3cc(CN4CCC(c5cccs5)CC4)ccc3C2=O)C(=O)N1 [GT-07511, 1-(1-oxo-5-((4-(thiophen-2-yl)piperidin-1-yl)methyl)isoindolin-2-yl)dihydropyrimidine-2,4(1H,3H)-dione] |  |  |  |  |  |  |  | A (0% ≤ substrate protein remaining % ≤ 80%) | A (0% ≤ substrate protein remaining % ≤ 80%) | B (80%< substrate protein remaining %≤ 100%) | 500 to 1000 | 500 to 1000 | A (0% ≤ substrate protein remaining % ≤ 80%) | A (0% ≤ substrate protein remaining % ≤ 80%) | A (0% ≤ substrate protein remaining % ≤ 80%) |  |  |  | 
5 | O=C1CCN(N2Cc3cc(CN4CC=C(c5c[nH]c6cc(F)ccc56)CC4)ccc3C2=O)C(=O)N1 [GT-07574, 1-(5-((4-(6-fluoro-1H-indol-3-yl)-3,6-dihydropyridin-1(2H)-yl)methyl)-1-oxoisoindolin-2-yl)dihydropyrimidine-2,4(1H,3H)-dione] |  | 1.5 to 1.9 |  |  |  |  |  | A (0% ≤ substrate protein remaining % ≤ 80%) | A (0% ≤ substrate protein remaining % ≤ 80%) | B (80%< substrate protein remaining %≤ 100%) |  |  | A (0% ≤ substrate protein remaining % ≤ 80%) | A (0% ≤ substrate protein remaining % ≤ 80%) | B (80%< substrate protein remaining %≤ 100%) |  |  |  | 
6 | Cn1cc(C2CCN(Cc3ccc4c(c3)CN(N3CCC(=O)NC3=O)C4=O)CC2)c2ccc(F)cc21 [GT-07575, 1-(5-((4-(6-fluoro-1-methyl-1H-indol-3-yl)piperidin-1-yl)methyl)-1-oxoisoindolin-2-yl)dihydropyrimidine-2,4(1H,3H)-dione] |  |  |  |  |  |  |  | A (0% ≤ substrate protein remaining % ≤ 80%) | A (0% ≤ substrate protein remaining % ≤ 80%) | A (0% ≤ substrate protein remaining % ≤ 80%) | 100 to 300 | 100 to 300 | A (0% ≤ substrate protein remaining % ≤ 80%) | A (0% ≤ substrate protein remaining % ≤ 80%) | A (0% ≤ substrate protein remaining % ≤ 80%) |  |  |  | 
7 | O=C1CCN(N2Cc3cc(CN4CC=C(c5c[nH]c6ncccc56)CC4)ccc3C2=O)C(=O)N1 [GT-07577, 1-(5-((4-(1H-pyrrolo[2,3-b]pyridin-3-yl)-3,6-dihydropyridin-1(2H)-yl)methyl)-1-oxoisoindolin-2-yl)dihydropyrimidine-2,4(1H,3H)-dione] |  |  |  |  |  |  |  | A (0% ≤ substrate protein remaining % ≤ 80%) | A (0% ≤ substrate protein remaining % ≤ 80%) | A (0% ≤ substrate protein remaining % ≤ 80%) | 500 to 1000 | 300 to 500 | A (0% ≤ substrate protein remaining % ≤ 80%) | B (80%< substrate protein remaining %≤ 100%) | A (0% ≤ substrate protein remaining % ≤ 80%) |  |  |  | 
8 | O=C1CCN(N2Cc3cc(CN4CC=C(c5n[nH]c6cc(F)ccc56)CC4)ccc3C2=O)C(=O)N1 [GT-07578, 1-(5-((4-(6-fluoro-1H-indazol-3-yl)-3,6-dihydropyridin-1(2H)-yl)methyl)-1-oxoisoindolin-2-yl)dihydropyrimidine-2,4(1H,3H)-dione] |  |  |  |  |  |  |  | A (0% ≤ substrate protein remaining % ≤ 80%) | B (80%< substrate protein remaining %≤ 100%) | B (80%< substrate protein remaining %≤ 100%) | 50 to 100 | 50 to 100 | A (0% ≤ substrate protein remaining % ≤ 80%) | A (0% ≤ substrate protein remaining % ≤ 80%) | A (0% ≤ substrate protein remaining % ≤ 80%) |  |  |  | 
9 | O=C1CCN(N2Cc3cc(CN4CC=C(c5cccc6c(F)cccc56)CC4)ccc3C2=O)C(=O)N1 [GT-07590, 1-(5-((4-(5-fluoronaphthalen-1-yl)-3,6-dihydropyridin-1(2H)-yl)methyl)-1-oxoisoindolin-2-yl)dihydropyrimidine-2,4(1H,3H)-dione] |  |  |  |  |  |  |  | A (0% ≤ substrate protein remaining % ≤ 80%) | B (80%< substrate protein remaining %≤ 100%) | A (0% ≤ substrate protein remaining % ≤ 80%) | 50 to 100 | 10 to 50 | A (0% ≤ substrate protein remaining % ≤ 80%) | A (0% ≤ substrate protein remaining % ≤ 80%) | A (0% ≤ substrate protein remaining % ≤ 80%) |  |  |  | 
10 | Cc1nc(C2CCN(Cc3ccc4c(c3)CN(N3CCC(=O)NC3=O)C4=O)CC2)c2c(-c3ccccc3)csc2n1 [GT-08087, 1-(5-((4-(2-methyl-5-phenylthieno[2,3-d]pyrimidin-4-yl)piperidin-1-yl)methyl)-1-oxoisoindolin-2-yl)dihydropyrimidine-2,4(1H,3H)-dione] |  |  |  |  |  |  |  |  |  |  |  |  |  |  |  | 20 to 30 | 60 to 80 | 30 to 40 | 30 to 40
